Experimental findings from patent publication EP0511033A1, “Extracts of the common lady's mantle, their preparation and their applications” (SYNTHELABO, priority 1991, dated 1992) are described below.

Test [1] in a line: Superoxide anion scavenging test (NADH/PMS generation, NBT reduction to diformazan, spectrophotometry). The class given is biochemical. The conditions noted are these: for concentration donnant 90 % d'inhibition: 90 % inhibition of diformazan coloration. An excerpt:
On a également testé l'activité anti-radicalaire sur l'anion superoxyde généré par la réaction de NADH (nicotinamide adénine dinucléotide hydrate) sur le PMS (phénazine méthosulfate). L'anion superoxyde provoque la réduction du NBT (Nitrobleu de Tétrazolium) en diformazan, de coloration bleu intense. On dose celui-ci par spectrophotométrie (Roback J., Gryglewski RJ., Biomedical Pharmacology, 1988, 37, (5), P. 837-841). On exprime l'activité anti-radicalaire d'une substance en pourcentage d'inhibition du développement de coloration due au diformazan. Par cette méthode de dosage, les extraits d'Alchemille présentent une activité bien supérieure aux 2 témoins testés, qui sont la quercétine et l'acide rosmarinique. Ainsi, on obtient 90 % d'inhibition avec des concentrations respectivement de 0,5 mg/ml d'acide rosmarinique et de quercétine, alors qu'on atteint ce niveau d'inhibition à une concentration de 0,1 mg/ml d'extrait aqueux d'Alchemille. Cet extrait est donc, dans ces conditions, 5 fois plus actif que les 2 témoins qui sont les plus actifs parmi les substances testées.

A short description of test [2]: Free radical scavenging test on diphénylpicrylhydrazyl hydrate (decrease of absorbance at 513 nm). The class given is biochemical. From the text:
Les extraits d'Alchemille obtenus selon l'invention présentent également des activités anti-radicalaires. On a démontré ces activités in vitro par deux méthodes de dosage. On a réalisé la première méthode de dosage sur un radical libre : le diphénylpicrylhydrazyl hydrate qui absorbe dans le violet à 513 nm. (Lamaison JL., Petitjean-Freytet C., Carnat P., Carnat A., 1988, Plantes Médicinales et Phytothérapie, 22, (4), p. 231-234). Un composé anti-radicalaire, piégeur des radicaux libres, entraîne une inhibition d'apparition de coloration du radical libre témoin, donc une diminution de la densité optique de ce radical libre. L'activité anti-radicalaire d'une substance s'exprime par la diminution du pourcentage d'absorbance du radical libre testé.Dans ces conditions de test, un extrait d'Alchemille obtenu selon l'invention présente une activité similaire à la vitamine E qui est la substance de référence la plus utilisée.

With `O=C(/C=C/c1ccc(O)c(O)c1)O[C@H](Cc1ccc(O)c(O)c1)C(=O)O` [Acide rosmarinique], the “concentration donnant 90 % d'inhibition” value in test [1] is recorded as 0,5 mg/ml. The INHIBITION % was 2% in test [1] (concentration 0,01 mg/ml); 59% in test [1] (concentration 0,1 mg/ml); 28% in test [1] (concentration 0,05 mg/ml); 90% in test [1] (concentration 0,5 mg/ml); 99% in test [1] (concentration 1 mg/ml).

As to `O=C(/C=C/c1ccc(O)c(O)c1)OC1CC(OC(=O)/C=C/c2ccc(O)c(O)c2)(C(=O)O)CC(O)C1O` (centres unmarked) [Cynarine], the “activité anti-radicalaire (comparison in words)” value in test [2] (compared with vitamine E) was “activité légèrement supérieure à la vitamine E”. The INHIBITION % in test [2] (concentration 0,01 mg/ml) is 16%; in test [2] (concentration 0,1 mg/ml), 89%; in test [2] (concentration 0,05 mg/ml), 60%; in test [2] (concentration 0,5 mg/ml) it was 94%; in test [2] (concentration 1 mg/ml) it was 96%.

For `O=c1c(O)c(-c2ccc(O)c(O)c2)oc2cc(O)cc(O)c12` [Quercétine], the “concentration donnant 90 % d'inhibition” value in test [1] is 0,5 mg/ml. Further, the INHIBITION % in test [1] (concentration 0,01 mg/ml) was determined as 1%; in test [1] (concentration 0,1 mg/ml), 69%; in test [1] (concentration 0,05 mg/ml), 31%; in test [1] (concentration 0,5 mg/ml), 91%; in test [1] (concentration 1 mg/ml), 98%.

Vitamine E: the INHIBITION % in test [2] (concentration 0,01 mg/ml) came out at 9%; in test [2] (concentration 0,1 mg/ml), 61%; in test [2] (concentration 0,05 mg/ml), 28%; in test [2] (concentration 0,5 mg/ml), 95%; in test [2] (concentration 1 mg/ml) it was 96%.
